{
  "source": "patent US12403132B2",
  "about": "“Methods of treating bone marrow failure syndromes and compositions for use in the same” (The Board of Trustees of the Leland Stanford Junior …, priority 2020, dated 2025)",
  "key": {"Ter119+ erythroblasts": {"test_system": "Ter119+ erythroblasts", "assay": "Ter119+ erythroblast expansion from murine Lin-Kit+ HSPCs (tet-shRPS19, RPL11+/lox)", "format": "cell-based, mouse", "procedure": "FIG. 8. NLK inhibition increases expansion of erythroid progenitors from human and murine models of DBA. Human cord blood CD34+ progenitors were transduced with lentivirus co-expressing GFP with shRNA against luciferase (shLuc), RPS19 (shRPS19) or RPL11 (shRPL11). After 36 hours cells GFP+ cells were differentiated in erythroid media in the presence or absence of 5 μM SD208 for 15 days. Cells were counted and assessed for cell surface expression of CD235. (a) The percentage of CD235+ cells was multiplied by the cell count and values were compared as a percentage of untreated controls. (b) Normalizing values relative to untreated RPS19-insufficiency progenitors facilitates direct comparison of erythropoiesis between untreated and SD208-treated cultures. (c) Approximately 3000 cells were removed from differentiating treatments at day 6 and NLK activity was assessed. Values were normalized to reflect a fold induction relative to untreated controls. (d) Lin-Kit+ hematopoietic progenitors were obtained from three mouse embryos expressing tetracycline-inducible shRNA against RPS19 at day E14.5 or three untreated mice, and thee mature RPL11^+/+ or three mature RPL11^+/lox mice treated with tamoxifen for eight weeks. Cells were grown in the presence or absence of doxycycline and/or SD208 for eight days prior to counting and assessing for ter119 surface expression. Values were expressed as a percentage relative to untreated controls (e) and directly comparing the effect of SD208 on erythropoiesis in ribosomal-insufficiency by expressing values relative to untreated ribosome-insufficient cultures (f). At day 5 approximately 3000 cells were assayed for NLK kinase assay (g). CD34+ HSPCs were isolated from three healthy control and three DBA patient mononuclear bone marrow aspirates by magnetic bead sorting and differentiated in the presence or absence of SD208 for 14 days. After counting the total cell population, the ratio of CD235+ erythroblasts was determined by flow cytometry and number of CD235+ erythroblasts calculated. This was expressed as a percentage of the average number of erythroid cells present in untreated healthy controls. (h) The direct effect of SD208 on erythroid expansion in DBA patient samples was calculated following normalization of untreated DBA patient samples as 1-fold, (i) At day five, 3000 cells from each of the differentiating cultures was analyzed for NLK activity by kinase assay and are expressed as a fold induction relative to untreated healthy controls.\nFIG. 11. Metformin improves erythropoiesis in zebrafish model of DBA but not murine models. (Panel A, left portion) Murine fetal liver Kit+ progenitors expressing tetracycline-regulatable shRNA against RPS19 were cultured in the absence (grey columns) or presence (black columns) of doxycycline either alone, or treated with metformin. After 8 days, the number of ter119+ erythroblasts were calculated. (A right) RPL11+/lox mice were left untreated (grey columns) or treated (black columns) with tamoxifen for 5 weeks prior to isolation of bone marrow Lin-Kit+ progenitors. Progenitors were differentiated in the presence or absence of metformin for 8 days before assessing the number of Ter119+ erythroblasts. (Panel B) In conjunction with flow cytometry, cultures were subjected to qRT-PCR for NLK expression and (Panel C) kinase NLK kinase activity was assessed by in vitro kinase assay. […]"}, "CD11b+ myeloid cells": {"test_system": "CD11b+ myeloid cells", "assay": "CD11b+ myeloid expansion of differentiating human cord blood CD34+ progenitors", "format": "cell-based", "procedure": "FIG. 7. SD208 increases erythroid expansion in human model of DBA through inhibition of NLK and not TGFβ. (a) Differentiating cord blood CD34+ progenitors were transduced with shRNA against luciferase or RPS19 and treated with inhibitors at working concentrations for TGFβ inhibition every three days. Cells were counted and CD235+ erythroid cells were assessed by flow cytometry after 15 days. (b) Prior to flow cytometry, 5000 cells per group were taken from differentiating cultures for NLK kinase assay. (c) CD34+ progenitors were transduced with shRNA against luciferase or RPS19 and non-targeting or siRNA against NLK. After sorting, samples were split into two groups and either treated with vehicle or SD208 every three days. After 15 days cells were counted and subject to flow cytometry to compare the expansion of maturing CD235+ erythroid (left panel) and CD11b+ myeloid cells (right panel). […] Cells were counted and CD235+ erythroid (D—upper) and CD11b+ myeloid cell (D—lower) percentages were determined by flow cytometry. The number of erythroid or myeloid cells is expressed as a percentage of the number of that lineage with no cytokine or drug treatment.\nFIG. 9. […] Cells were counted and the percentage expressing CD235+ erythroid (left) and CD11b+ myeloid (right) was determined by flow cytometry. […] Values are expressed as a fold induction relative to untreated. (Panel C) Transduced and sorted CD34+ progenitors were cultured in methylcellulose in the presence or absence of metformin for 16 days and BFU-E erythroid (left) and CFU-GM myeloid (right) colonies scored. […] To directly compare the effect of metformin in each group, metformin-treated cultures were normalized to untreated cultures and are expressed as a fold induction of the untreated control. […]\nCells were incubated with human Fc receptor binding inhibitor (#14-9161-73; eBioscience) followed by primary antibodies CD235-APC (#306607; BioLegend) and CD11b-PE/Cy5 (#101209; BioLegend). Data were collected on a DxP10 flow cytometer (Cytek) and analyzed by using FlowJo Software, v.9.7.2."}},
  "note": "“And” between values parts separate entries of the source, which are not always exact repeats. Equal entries are not always repeated.",
  "data": [
    {"smiles": "Fc1ccc(Cl)cc1-c1nc(Nc2ccncc2)c2nccnc2n1", "note": "[SD208]", "values": [
      {"measurement": "erythropoiesis, % of controls", "setting": "Ter119+ erythroblasts; RPL11+/lox bone marrow HSPCs of three mice, SD208, 8 days, 31.2, 26.4, 18.6% without SD208", "result": "57.3% and 56.8% and 50.3%"},
      {"measurement": "fold increase of erythropoiesis in response to SD208", "setting": "Ter119+ erythroblasts; murine RPL11-insufficiency", "result": 2.29, "unit": "fold"},
      {"measurement": "fold increase of erythropoiesis in response to SD208", "setting": "Ter119+ erythroblasts; murine RPS19-insufficiency", "result": 3.88, "unit": "fold"},
      {"measurement": "Ter119+ erythroblasts, % of populations differentiated without doxycycline", "setting": "Ter119+ erythroblasts; tet-shRPS19 fetal liver HSPCs of three mice, doxycycline + SD208, 8 days, 24.3, 20.3, 18.5% without SD208", "result": "83.2% and 81.1% and 76.6%"}
    ]},
    {"smiles": "CC(C)=CCC[C@](C)(O[C@@H]1O[C@H](CO[C@@H]2O[C@H](CO)[C@@H](O)[C@H](O)[C@H]2O)[C@@H](O)[C@H](O)[C@H]1O)[C@H]1CC[C@]2(C)[C@@H]1[C@H](O)C[C@@H]1[C@@]3(C)CC[C@H](O[C@@H]4O[C@H](CO)[C@@H](O)[C@H](O)[C@H]4O[C@@H]4O[C@H](CO)[C@@H](O)[C@H](O)[C@H]4O)C(C)(C)[C@@H]3CC[C@]12C", "note": "[ginsenoside Rb1]", "values": [
      {"measurement": "impact on CD11b+ myeloid expansion", "setting": "CD11b+ myeloid cells; control or RPS19-insufficiency", "result": "did not impact"}
    ]},
    {"smiles": "CN(C)C(=N)N=C(N)N", "note": "[metformin]", "values": [
      {"measurement": "influence on CD11b+ expansion", "setting": "CD11b+ myeloid cells; 50 mM metformin", "result": "negligible influence"},
      {"measurement": "rescue of Ter119+ erythroblast expansion", "setting": "Ter119+ erythroblasts; murine RPS19- or RPL11-insufficiency, metformin, 8 days", "result": "did not rescue"}
    ]}
  ]
}
